Results: patent US7019029B2, “Skin whiteners containing hydroxytetronic acid derivatives” (priority 2000, dated 2006)

Tested on: hyperpigmented skin areas of melasma patients
Assay: Study in melasma patients: topical treatment of hyperpigmented skin areas
Assay type: in vivo, human
Conditions: oil-in-water emulsion containing about 10% compound, twice daily for 5 to 7 days, 4 melasma patients, observed in all the patients
Experimental: The efficacy of a preferred embodiment of the invention was tested in a clinical trial. An oil-in-water emulsion containing about 10% 4-diphenyl-2-hydroxytetronic acid was applied to various pigmented areas of the skin of 10 subjects twice daily. On normal pigmented skin types 2 and 3, visually apparent lightening was observed within 4 to 6 hours of application when compared to surrounding, untreated skin areas of the same subject. In another study, the hyperpigmented skin areas of 4 melasma patients were treated twice daily for 5 to 7 days.

Q: With `O=C1OC(c2ccccc2)(c2ccccc2)C(O)=C1O` [4-diphenyl-2-hydroxytetronic acid, 3,4-dihydroxy-5-diphenyl-2(5H)-furanone] as the molecule, how does the “lightening of the pigmented lesions” value read?
A: Significant lightening
